This is an account of results in ChEMBL document CHEMBL1142558, “A new polyether ladder compound produced by the dinoflagellate Karenia brevis” (J Nat Prod, 2005).

The Ki is the dissociation constant of the complex between target and ligand, obtained from inhibition or displacement. A higher Ki goes with weaker binding.

Data set [1] can be described thus: Displacement of [3H]PbTx3 from VSSC in Sprague-Dawley rat brain synaptosomes. The class given is subcellular. A general note: Loss of bound radioactivity is the signal in a displacement assay; it reports binding, not function.
The test system of a further data set is Gambusia affinis. Put plainly: Toxicity against Gambusia affinis assessed as time required for death at 1 ug/ml after 24 hrs. It counts as organism-based. The conditions noted are these: in vivo.

`C=C/C=C\CC[C@H]1O[C@H]2CC[C@@]3(C)O[C@H]4[C@@H](O)C[C@@]5(C)O[C@@H](CC/C=C(C)/C(C)=C/C(OC)OC)[C@@H](C)C[C@@H]5O[C@@H]4C[C@@H]3O[C@@H]2CC[C@@]1(C)O` [BREVENAL ACETAL] yielded a Ki in data set [1] of 680 nM. In addition, in the data set on Gambusia affinis, the Activity result is given as “Non-toxic”.

For `C=C/C=C\CC[C@H]1O[C@H]2CC[C@@]3(C)O[C@H]4[C@@H](O)C[C@@]5(C)O[C@@H](CC/C=C(C)/C(C)=C/C=O)[C@@H](C)C[C@H]5O[C@@H]4C[C@@H]3O[C@@H]2CC[C@@]1(C)O` [BREVENAL], the Ki in data set [1] is 1850 nM. In addition, the Activity entry with Gambusia affinis is reported as “Non-toxic”.

As for `C=C(C=O)C[C@@H]1C[C@H](O)[C@]2(C)O[C@@H]3C[C@@H]4O[C@@H]5C[C@]6(C)O[C@]7(C)CC[C@@H]8O[C@@H]9C[C@]%10(C)O[C@@H]%11C(C)=CC(=O)O[C@H]%11C[C@H]%10O[C@H]9C[C@@H](C)[C@H]8O[C@H]7C[C@H]6O[C@@]5(C)C/C=C\[C@H]4O[C@H]3C[C@H]2O1` [BREVETOXIN B], the Activity in the data set on Gambusia affinis came out at 7.5 min.
